Where two headings read alike, the source gives them in different places.
How the values were obtained:
[1] = system: Key Grass and Sedge Weeds as well as Grass Crops; experiment: Post-Emergent Test II (Table 6); type: in vivo; details: post-emergence, 336 h, 14 days after application; for pest or weed control at 70 g/ha: 70 g ai/ha; for pest or weed control at 140 g/ha: 140 g ai/ha
Procedure, shortened: (§1)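 Visual injury ratings (0 = no injury, 100 = complete kill) were taken 14 days after treatment relative to untreated plants. Seedlings at the first or second true leaf stage received an overhead spray at 187 L/ha, and solvent-blank sprayed plants served as controls.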

[2] = system: Key Broadleaf Weed and Crop Species; experiment: Post-Emergent Test II (Table 5); type: in vivo; details: post-emergence, 336 h; for pest or weed control at 70 g/ha: application rate 70 (kg ai/ha; footnote: g ai/ha); for pest or weed control at 140 g/ha: application rate 140 (kg ai/ha; footnote: g ai/ha)
Procedure, shortened: as §1

[3] = CYPSS, read-out: Visual Growth Reduction (%) 14 Days After Application CYPSS
[4] = DIGSA: crabgrass (Digitaria sanguinalis), read-out: Visual Growth Reduction (%) 14 Days After Application DIGSA
[5] = ECHSS, read-out: Visual Growth Reduction (%) 14 Days After Application ECHSS
[6] = ORYSS (crop), read-out: Visual Growth Reduction (%) 14 Days After Application ORYSS
[7] = SETFA: giant foxtail (Setaria faberi), read-out: Visual Growth Reduction (%) 14 Days After Application SETFA
[8] = SORVU: grain sorghum (Sorghum vulgare), read-out: Visual Growth Reduction (%) 14 Days After Application SORVU
[9] = TRZSS (crop), read-out: Visual Growth Reduction (%) 14 Days After Application TRZSS
[10] = ZEAMX: maize, corn (Zea mays), read-out: Visual Growth Reduction (%) 14 Days After Application ZEAMX
[11] = Abutilon theophrasti, ABUTH: velvetleaf (Abutilon theophrasti), read-out: Visual Growth Reduction (%) 14 Days After Application ABUTH
[12] = Amaranthus retroflexus, AMARE: redroot pigweed (Amaranthus retroflexus), read-out: Visual Growth Reduction (%) 14 Days After Application AMARE
[13] = Brassica napus, BRSSS: oilseed rape, canola (Brassica napus), read-out: Visual Growth Reduction (%) 14 Days After Application BRSSS
[14] = Chenopodium album, CHEAL: lambsquarters (Chenopodium album), read-out: Visual Growth Reduction (%) 14 Days After Application CHEAL
[15] = Euphorbia heterophylla, EPHHL: wild poinsettia (Euphorbia heterophylla), read-out: Visual Growth Reduction (%) 14 Days After Application EPHHL
[16] = Helianthus annuus, HELAN: sunflower (Helianthus annuus), read-out: Visual Growth Reduction (%) 14 Days After Application HELAN
[17] = Viola tricolor, VIOTR: wild pansy (Viola tricolor), read-out: Visual Growth Reduction (%) 14 Days After Application VIOTR

SMILES	melting point [°C]	pest or weed control at 70 g/ha [1, 3] [%]	pest or weed control at 140 g/ha [1, 3] [%]	pest or weed control at 70 g/ha [1, 4] [%]	pest or weed control at 140 g/ha [1, 4] [%]	pest or weed control at 70 g/ha [1, 5] [%]	pest or weed control at 140 g/ha [1, 5] [%]	pest or weed control at 70 g/ha [1, 6] [%]	pest or weed control at 140 g/ha [1, 6] [%]	pest or weed control at 70 g/ha [1, 7] [%]	pest or weed control at 140 g/ha [1, 7] [%]	pest or weed control at 70 g/ha [1, 8] [%]	pest or weed control at 140 g/ha [1, 8] [%]	pest or weed control at 70 g/ha [1, 9] [%]	pest or weed control at 140 g/ha [1, 9] [%]	pest or weed control at 70 g/ha [1, 10] [%]	pest or weed control at 70 g/ha [2, 11] [%]	pest or weed control at 140 g/ha [2, 11] [%]	pest or weed control at 70 g/ha [2, 12] [%]	pest or weed control at 140 g/ha [2, 12] [%]	also measured
COC(=O)c1nc(-c2ccc(Cl)c(F)c2C)cc(N)c1Cl [Compound 73]	128 to 134	95 to 100	95 to 100	0 to 29	0 to 29	30 to 44	45 to 59	0 to 29	0 to 29	30 to 44	45 to 59	45 to 59	60 to 74	45 to 59	60 to 74	60 to 74	95 to 100	95 to 100	95 to 100	95 to 100	pest or weed control at 140 g/ha [1, 10]: 75 to 84%; pest or weed control at 70 g/ha [2, 13]: 95 to 100%; pest or weed control at 140 g/ha [2, 13]: 95 to 100%; pest or weed control at 70 g/ha [2, 14]: 95 to 100%; pest or weed control at 140 g/ha [2, 14]: 95 to 100%; pest or weed control at 70 g/ha [2, 15]: 75 to 84%; pest or weed control at 140 g/ha [2, 15]: 75 to 84%; pest or weed control at 70 g/ha [2, 16]: 95 to 100%; pest or weed control at 140 g/ha [2, 16]: 95 to 100%; pest or weed control at 70 g/ha [2, 17]: 85 to 94%; pest or weed control at 140 g/ha [2, 17]: 95 to 100%
Nc1c(Cl)c(C(=O)O)nc(-c2ccc(C(F)(F)F)nc2)c1Cl [Compound 33]	155 to 158	95 to 100	95 to 100	45 to 59	60 to 74	60 to 74	60 to 74	0 to 29	0 to 29	75 to 84	75 to 84	75 to 84	75 to 84	30 to 44	45 to 59	60 to 74	0 to 29	0 to 29	60 to 74	95 to 100	pest or weed control at 140 g/ha [1, 10]: 60 to 74%; pest or weed control at 70 g/ha [2, 13]: 0 to 29%; pest or weed control at 140 g/ha [2, 13]: 30 to 44%; pest or weed control at 70 g/ha [2, 14]: 85 to 94%; pest or weed control at 140 g/ha [2, 14]: 85 to 94%; pest or weed control at 70 g/ha [2, 15]: 75 to 84%; pest or weed control at 140 g/ha [2, 15]: 75 to 84%; pest or weed control at 70 g/ha [2, 16]: 85 to 94%; pest or weed control at 140 g/ha [2, 16]: 95 to 100%; pest or weed control at 70 g/ha [2, 17]: 0 to 29%; pest or weed control at 140 g/ha [2, 17]: 0 to 29%
COC(=O)c1nc(-c2ccc(Cl)c(Cl)c2Cl)c(F)c(N)c1Cl [Compound 12]	195 to 196	0 to 29	45 to 59	30 to 44	45 to 59	0 to 29	0 to 29	0 to 29	0 to 29	45 to 59	45 to 59	0 to 29	30 to 44	0 to 29	0 to 29	75 to 84	85 to 94	85 to 94	95 to 100	95 to 100	pest or weed control at 70 g/ha [2, 13]: 75 to 84%; pest or weed control at 140 g/ha [2, 13]: 75 to 84%; pest or weed control at 70 g/ha [2, 14]: 85 to 94%; pest or weed control at 140 g/ha [2, 14]: 85 to 94%; pest or weed control at 70 g/ha [2, 15]: 75 to 84%; pest or weed control at 140 g/ha [2, 15]: 75 to 84%; pest or weed control at 70 g/ha [2, 16]: 85 to 94%; pest or weed control at 140 g/ha [2, 16]: 85 to 94%; pest or weed control at 70 g/ha [2, 17]: 0 to 29%; pest or weed control at 140 g/ha [2, 17]: 0 to 29%

Source: patent publication US10765114B2, “4-amino-6-(pyridyl and 2-substitutedphenyl)-picolinates and 6-amino-2-(pyridyl and 2-substitutedphenyl)-pyrimidine-4-carboxylates and their use as herbicides” (Dow AgroSciences LLC, priority 2013, dated 2020)
